Experimental data as given in patent US6229029A, “11β-aryl substituted 14,17-ethanoestratriens, method for the production of these compounds and their use in the production of medicaments” (Schering Aktiengesellschaft, priority 1997, dated 2001).

Legend:
[1] = tested on: trabecular bone (proximal tibia) of ovariectomized rats; test: Bone studies in ovariectomized rats: trabecular bone surface area (TB/TV), histological, proximal tibia; assay type: in vivo, rat; conditions: 28 days
Procedure: 3-month-old female rats are ovariectomized and treated once daily with the test compound immediately after the operation for 28 days. The administration is done subcutaneously in castor oil/benzyl benzoate or arachis oil/ethanol. The animals are sacrificed on the day after the last administration, and femurs, tibiae and uteri are removed. The uteri are weighed, fixed and worked up for histological studies. The determination of the bone density is carried out ex vivo on prepared long bones with use of pQCT (Quantitative Computer Tomography). The measurements are performed at a distance of 5-7 mm from the ball of the joint on the distal femur or the proximal tibia.
As an alternative, the action on the bone is determined by measuring the trabecular bone surface area of the secondary spongiosa in histological preparations of the distal femur or the proximal tibia. The result is expressed as the proportion, in percent, of the trabecular bone surface area in the measured total bone surface area ([…]). The bone density that is measured with use of QCT and the trabecular bone surface area that is determined in the histological section correlate well to one another. A comparison of the two measurement variables is therefore permissible.
About 50% of the bone density of the animals is lost by the ovariectomy. […] In Table 4 and FIG. 2, the results of this test for doses of 0.1-100 μg/animal/day are presented. The bone density was measured on the distal femur; for comparison, the trabecular bone surface area in the proximal tibia was measured. The data that are contained in Table 4 mean specifically:
TB/TV trabecular bone surface area/total bone surface area; histologically determined
For compound B according to the invention, their bone-protecting action was also determined (Table 6). For this purpose, the parameter of TB/TV was determined, which, however, with respect to the informational value for the bone-protecting activity correlates well to the parameter of BMD-qCT that is determined for compounds A and V. This can be ascertained from Table 4; both parameters were determined for compound A.

[2] = tested on: bone (distal femur / proximal tibia) of ovariectomized rats; test: Bone studies in ovariectomized rats: bone density by pQCT; assay type: in vivo, rat; conditions: for % of Action of E2 (bone density tibia) / Bone Density Tibia: Table 7, proximal tibia
uterus of infant rats [3] = test: Uterus growth test on infant rats (estrogenic action); assay type: in vivo, rat; conditions: for Epithelial Height % E2 / Uterus Weight % E2: 3 days, infant rats; for estrogenic action in the uterus (in words): uterus growth test
Excerpt: (§1) The influence of the compounds according to the invention on the uterus was examined in the uterus growth test (estrogenic action) and in the anti-uterus growth test (antiestrogenic action), both performed on infant rats.
In infant animals, both uterus and vagina show one of the estrogenic activity-dependent weight increases in their treatment with an estrogenically active substance. In the uterus, under estrogenic action, moreover, it results in a proliferation and height increase of the luminal epithelium.
Immature, normal rats (body weight 40-50 g) receive the substance s.c. over 3 days (d1-d3). On day 4 (d4), the animals are sacrificed with CO2. The uteri are prepared outside and weighed. A piece of the uterus, preferably a uterine horn, is set in formaldehyde for the histological evaluation and embedded in paraffin. The stimulation of the organ weights (relative to mg/100 g of body weight) and the epithelial height are indicated in percentage stimulation in comparison to the reference compound 17β-estradiol. (Substitution dose E2 0.3 μg/animal).

estrogen receptors = target: T1, estrogen receptors (Homo sapiens, UniProt P03372); test: Transactivation assay in HeLa cells (partial estrogenic action, rPR-TK); assay type: cell-based; conditions: rPR-TK reporter, read-out: Agonism HELA (rPR-TK)
T1 construct: expressed in transfected cells; host or cells: HeLa cells
Procedure: The partial estrogenic action was also determined by transactivation assays. HeLa cells were […] with estrogen receptors and a reporter gene, which consists of the estrogen-response element of the progesterone receptor and the CAT-gene. The test was performed as described: Savouret et al., EMBO J. 10, 1875-1883 (1991).

bone / uterus of rats = test: Dissociation of bone action/uterus action (FIG. 7); assay type: in vivo, rat; conditions: bone action vs uterus epithelial height, relative to 17β-estradiol
Excerpt: There, for compounds A, B and V, their bone-protecting actions are compared to the action of estrogen on the uterus (parameter: uterus epithelial height) as a function of dosage, in each case relative to the action of 17β-estradiol.

uterus of infant rats [4] = test: Anti-uterus growth test in infant rats (antiestrogenic action); assay type: in vivo, rat; conditions: with 0.3 μg/animal/day 17β-estradiol
Excerpt: as §1
The uterus of infant estrogen-substituted rats can be used as a test model to detect a direct action of substances with antiestrogenic properties. The parameter of the estrogenic action is the uterus growth that is induced by estradiol in infant rats and that is inhibited by simultaneous administration of a substance with antiestrogenic action.
The test substances are treated s.c. on 3 successive days (d1-d3) in combination with a substitution dose of 0.3 μg/animal/day of 17β-estradiol. As a positive control, 17β-estradiol alone is used; the vehicle group is used as a negative control. On day 4 (d4), the animals are sacrificed, uteri and vaginae are prepared outside and weighed. The organ weights are converted into mg/100 g of body weight, and then the mean and the standard deviation for each dosage are calculated. The inhibition of the uterus or vaginal growth that is induced by 17β-estradiol is indicated in % as inhibition.

human estrogen receptor = target: T2, human estrogen receptor (Homo sapiens, UniProt P03372); test: Transactivation assay in HeLa cells (antiestrogenic action, vit-TK-CAT reporter); assay type: cell-based; conditions: in the presence of 0.1 nM estradiol, read-out: Antagonism IC50, HELA
T2 construct: expressed in transfected cells; host or cells: HeLa cells
T2 sequence (P03372 1-595): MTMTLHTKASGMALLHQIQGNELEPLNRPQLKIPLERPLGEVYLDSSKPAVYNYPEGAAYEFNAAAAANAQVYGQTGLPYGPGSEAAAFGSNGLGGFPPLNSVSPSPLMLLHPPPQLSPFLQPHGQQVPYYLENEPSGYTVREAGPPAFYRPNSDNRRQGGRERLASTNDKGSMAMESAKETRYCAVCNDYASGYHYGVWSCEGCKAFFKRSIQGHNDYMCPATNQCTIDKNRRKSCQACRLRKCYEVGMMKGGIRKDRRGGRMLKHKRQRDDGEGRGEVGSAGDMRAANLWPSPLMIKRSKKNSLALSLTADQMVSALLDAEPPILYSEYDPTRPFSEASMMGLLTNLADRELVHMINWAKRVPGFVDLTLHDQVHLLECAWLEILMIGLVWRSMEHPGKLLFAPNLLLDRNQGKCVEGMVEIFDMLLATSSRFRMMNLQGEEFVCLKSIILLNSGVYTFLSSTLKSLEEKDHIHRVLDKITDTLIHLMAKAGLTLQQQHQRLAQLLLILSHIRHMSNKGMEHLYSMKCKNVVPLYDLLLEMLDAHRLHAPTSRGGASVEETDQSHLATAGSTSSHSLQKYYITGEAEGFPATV

[5] = Table 6, tibia, 0.3 μg/animal/day s.c.
[6] = Table 4, distal femur, 0.3 μg/animal/day s.c., 28 days
[7] = Table 5, proximal tibia, 0.3 μg/animal/day s.c., 28 days
[8] = 0.3 μg/animal/day s.c., 28 days
[9] = Table 6, tibia, 1 μg/animal/day s.c.
[10] = Table 6, tibia, 10 μg/animal/day s.c.
[11] = Table 6, tibia, 100 μg/animal/day s.c.
[12] = 100 μg/animal/day s.c., 28 days
[13] = 250 μg/animal/day s.c., 28 days

Compound: C[C@]12CC[C@@H]3c4ccc(O)cc4CC[C@H]3[C@@H]1CC[C@@H]2O [17β-estradiol, reference compound]
- TB/TV (Tibia) ([1]; Table 4, proximal tibia, 0.3 μg/animal/day s.c.): 34.0%
- % of Action of E2 (TB/TV) [1, 5]: 100%
- TB/TV (Tibia) [1, 5]: 26.0%
- % of Action of E2 (bone density femur) [2, 6]: 100%
- Bone Density Femur [2, 6]: 361.7 mg Ca/ccm
- % of Action of E2 (bone density) [2, 7]: 100%
- Bone Density [2, 7]: 375.2 mg Ca/ccm
- % of Action of E2 (bone density tibia) [2, 8]: 100%
- Bone Density Tibia [2, 8]: 402.9 mg Ca/ccm

Compound: C[C@]12C[C@H](c3ccc(OCCCCC[S+]([O-])Cc4ccccn4)cc3)[C@@H]3c4ccc(O)cc4CC[C@H]3[C@]13CC[C@@]2(O)CC3 (stereo partly drawn) [Compound B, 14α,17α-ethano-11β-{4-[5-(2-pyridinomethylsulfinyl)pentyloxy]phenyl}-1,3,5(10)-estratriene-3,17β-diol]
- Epithelial Height % E2 (uterus of infant rats [3]; 0.01 mg/kg s.c.): 4 % E2
- Uterus Weight % E2 (uterus of infant rats [3]; 0.01 mg/kg s.c.): 3 % E2
- Epithelial Height % E2 (uterus of infant rats [3]; 0.1 mg/kg s.c.): 19 % E2
- Uterus Weight % E2 (uterus of infant rats [3]; 0.1 mg/kg s.c.): 31 % E2
- Epithelial Height % E2 (uterus of infant rats [3]; 1 mg/kg s.c.): 18 % E2
- Uterus Weight % E2 (uterus of infant rats [3]; 1 mg/kg s.c.): 14 % E2
- Epithelial Height % E2 (uterus of infant rats [3]; 10 mg/kg s.c.): 13 % E2
- Uterus Weight % E2 (uterus of infant rats [3]; 10 mg/kg s.c.): 6 % E2
- estrogenic activity relative to compound V (in words) (uterus of infant rats [3]; s.c., in the considered dose range, vs compound V): approximately half as strongly estrogenically active
- estrogenic action in the uterus (in words) (uterus of infant rats [3]; s.c.): low estrogenic action
- Emax (estrogen receptors): 50%
- dissociation of bone-protecting action from estrogen action on the uterus (in words) (bone / uterus of rats): considerably dissociated
- % of Action of E2 (TB/TV) [1, 9]: 52%
- TB/TV (Tibia) [1, 9]: 19.6%
- % of Action of E2 (TB/TV) [1, 10]: 47%
- TB/TV (Tibia) [1, 10]: 18.9%
- % of Action of E2 (TB/TV) [1, 11]: 45%
- TB/TV (Tibia) [1, 11]: 18.6%
- Uterus Weight % of Inhibition (uterus of infant rats [4]; 0.1 mg/kg s.c.): 32%
- Uterus Weight % of Inhibition (uterus of infant rats [4]; 1 mg/kg s.c.): 83%
- Uterus Weight % of Inhibition (uterus of infant rats [4]; 10 mg/kg s.c.): 100%
- IC50 (human estrogen receptor): 300 pM

Compound: C[C@]12C[C@H](c3ccc(OCCCCC[S+]([O-])Cc4ccccn4)cc3)[C@@H]3c4ccc(O)cc4CC[C@H]3[C@@H]1CC[C@@H]2O (stereo partly drawn) [Compound V, reference compound]
- Epithelial Height % E2 (uterus of infant rats [3]; 0.03 mg/kg s.c.): 18 % E2
- Uterus Weight % E2 (uterus of infant rats [3]; 0.03 mg/kg s.c.): 28 % E2
- Epithelial Height % E2 (uterus of infant rats [3]; 0.3 mg/kg s.c.): 33 % E2
- Uterus Weight % E2 (uterus of infant rats [3]; 0.3 mg/kg s.c.): 32 % E2
- Epithelial Height % E2 (uterus of infant rats [3]; 3 mg/kg s.c.): 27 % E2
- Uterus Weight % E2 (uterus of infant rats [3]; 3 mg/kg s.c.): 19 % E2
- estrogenic action in the uterus (in words) (uterus of infant rats [3]; s.c.): low estrogenic action
- Emax (estrogen receptors): 37%
- dissociation of bone-protecting action from estrogen action on the uterus (in words) (bone / uterus of rats): the two curves coincide
- % of Action of E2 (bone density tibia) ([2]; 10 μg/animal/day s.c., 28 days): 40%
- Bone Density Tibia ([2]; 10 μg/animal/day s.c., 28 days): 337.3 mg Ca/ccm
- % of Action of E2 (bone density tibia) [2, 12]: 34.4%
- Bone Density Tibia [2, 12]: 331.2 mg Ca/ccm
- % of Action of E2 (bone density tibia) [2, 13]: 74%
- Bone Density Tibia [2, 13]: 374.3 mg Ca/ccm
- dose with which an action of about 80% of 17β-estradiol on trabecular bone is achieved ([2]; proximal tibia, s.c.): 250 μg/animal/day
- Uterus Weight % of Inhibition (uterus of infant rats [4]; 0.3 mg/kg s.c.): 57%
